In the supplement of paper PMC10307832:

Legend:
Experiment in all cases: relative viability (nuclei count vs DMSO), 5 days (fraction); higher = more cells survive
201T = system: 201T
Procedure, shortened: (§1)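 Lung cancer cell lines, seeded in 1536-well plates, were treated the following day by pin tool with a single drug or with five library-drug doses (not always all listed) in √10 steps on top of a fixed anchor-drug dose. Cells were fixed and nuclei stained in one step after 5 days, and nuclei were counted. Relative viability is the nuclei count for treated wells divided by that for vehicle wells, reported as medians of duplicate plates.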

NCI-H1666 = system: NCI-H1666
Procedure, shortened: as §1

NCI-H441 = system: NCI-H441
Procedure, shortened: as §1

SK-MES-1 = system: SK-MES-1
Procedure, shortened: as §1

A-427 = system: A-427
Procedure, shortened: as §1

COR-L23 = system: COR-L23
Procedure, shortened: as §1

NCI-H596 = system: NCI-H596
Procedure, shortened: as §1

LK-2 = system: LK-2
Procedure, shortened: as §1

EKVX = system: EKVX
Procedure, shortened: as §1

NCI-H650 = system: NCI-H650
Procedure, shortened: as §1

HCC-44 = system: HCC-44
Procedure, shortened: as §1

NCI-H838 = system: NCI-H838
Procedure, shortened: as §1

NCI-H522 = system: NCI-H522
Procedure, shortened: as §1

HARA = system: HARA
Procedure, shortened: as §1

HCC-15 = system: HCC-15
Procedure, shortened: as §1

NCI-H23 = system: NCI-H23
Procedure, shortened: as §1

HCC-827 = system: HCC-827
Procedure, shortened: as §1

LCLC-103H = system: LCLC-103H
Procedure, shortened: as §1

NCI-H1437 = system: NCI-H1437
Procedure, shortened: as §1

COR-L 105 = system: COR-L 105
Procedure, shortened: as §1

NCI-H1975 = system: NCI-H1975
Procedure, shortened: as §1

SW 900 = system: SW 900
Procedure, shortened: as §1

NCI-H520 = system: NCI-H520
Procedure, shortened: as §1

CC(C)Oc1cc(Nc2nc(N[C@@H](C)c3ccc(F)cn3)ncc2Cl)n[nH]1 [AZ23] + O=C(CCCCCCC(=O)Nc1ccccc1)NO [Vorinostat] (partner 1 µM)
relative viability (201T; first compound 0.01 µM): 1.05
relative viability (201T; first compound 0.03162 µM): 1.09
relative viability (201T; first compound 0.3162 µM): 1.08
relative viability (NCI-H1666; first compound 0.01 µM): 0.859
relative viability (NCI-H1666; first compound 0.03162 µM): 0.977
relative viability (NCI-H1666; first compound 0.3162 µM): 1.03
relative viability (NCI-H441; first compound 0.01 µM): 0.825
relative viability (NCI-H441; first compound 0.03162 µM): 0.842
relative viability (NCI-H441; first compound 0.3162 µM): 0.738
relative viability (SK-MES-1; first compound 0.03162 µM): 1.22
relative viability (SK-MES-1; first compound 0.3162 µM): 1.2
relative viability (A-427; first compound 0.01 µM): 0.699
relative viability (A-427; first compound 0.03162 µM): 0.892
relative viability (A-427; first compound 0.3162 µM): 0.988
relative viability (COR-L23; first compound 0.01 µM): 0.164
relative viability (COR-L23; first compound 0.03162 µM): 0.498
relative viability (COR-L23; first compound 0.3162 µM): 0.424
relative viability (NCI-H596; first compound 0.01 µM): 0.523
relative viability (NCI-H596; first compound 0.03162 µM): 0.622
relative viability (NCI-H596; first compound 0.3162 µM): 0.582
relative viability (LK-2; first compound 0.01 µM): 0.22
relative viability (LK-2; first compound 0.03162 µM): 0.216
relative viability (LK-2; first compound 0.3162 µM): 0.3
relative viability (EKVX; first compound 0.01 µM): 0.811
relative viability (EKVX; first compound 0.03162 µM): 0.683
relative viability (EKVX; first compound 0.3162 µM): 0.675
relative viability (NCI-H650; first compound 0.01 µM): 0.411
relative viability (NCI-H650; first compound 0.03162 µM): 0.583
relative viability (NCI-H650; first compound 0.3162 µM): 0.452
relative viability (HCC-44; first compound 0.01 µM): 1.14
relative viability (HCC-44; first compound 0.03162 µM): 1.16
relative viability (HCC-44; first compound 0.3162 µM): 1.09
relative viability (NCI-H838; first compound 0.01 µM): 0.768
relative viability (NCI-H838; first compound 0.03162 µM): 0.687
relative viability (NCI-H838; first compound 0.3162 µM): 0.626
relative viability (NCI-H522; first compound 0.01 µM): 0.939
relative viability (NCI-H522; first compound 0.03162 µM): 0.954
relative viability (NCI-H522; first compound 0.3162 µM): 0.934
relative viability (HARA; first compound 0.01 µM): 0.58
relative viability (HARA; first compound 0.03162 µM): 0.471
relative viability (HARA; first compound 0.3162 µM): 0.383
relative viability (HCC-15; first compound 0.01 µM): 0.921
relative viability (HCC-15; first compound 0.03162 µM): 0.963
relative viability (HCC-15; first compound 0.3162 µM): 0.788
relative viability (NCI-H23; first compound 0.03162 µM): 0.62
relative viability (NCI-H23; first compound 0.3162 µM): 0.719
relative viability (HCC-827; first compound 0.01 µM): 0.964
relative viability (HCC-827; first compound 0.03162 µM): 0.866
relative viability (HCC-827; first compound 0.3162 µM): 0.9
relative viability (LCLC-103H; first compound 0.01 µM): 0.76
relative viability (LCLC-103H; first compound 0.03162 µM): 0.85
relative viability (LCLC-103H; first compound 0.3162 µM): 0.769
relative viability (NCI-H1437; first compound 0.01 µM): 0.981
relative viability (NCI-H1437; first compound 0.03162 µM): 0.929
relative viability (NCI-H1437; first compound 0.3162 µM): 0.809
relative viability (COR-L 105; first compound 0.01 µM): 0.698
relative viability (COR-L 105; first compound 0.03162 µM): 0.799
relative viability (COR-L 105; first compound 0.3162 µM): 0.841
relative viability (NCI-H1975; first compound 0.01 µM): 0.734
relative viability (NCI-H1975; first compound 0.03162 µM): 0.738
relative viability (NCI-H1975; first compound 0.3162 µM): 0.731
relative viability (SW 900; first compound 0.01 µM): 0.367
relative viability (SW 900; first compound 0.3162 µM): 0.544
relative viability (NCI-H520; first compound 0.01 µM): 0.794
relative viability (NCI-H520; first compound 0.03162 µM): 0.754
relative viability (NCI-H520; first compound 0.3162 µM): 0.609
